This note sets out measurements from article PMC7041945, “Misfolded proteins bind and activate death receptor 5 to trigger apoptosis during unresolved endoplasmic reticulum stress” (eLife, 2020).

Common to all, as to format: cell-based, Homo sapiens
The subject of experiment [1] is caspase 8 in HCT116 GFP-Trap immunoprecipitates. As to the kind of experiment: Caspase 8 activity (caspase glo 8) of GFP immunoprecipitates (beads). As to conditions: for Mean ± SEM (IP): GFPTrap beads, relative to GFP; for 95% confidence interval of difference (IP) / Difference between means (IP): vs. GFP. Here is the method:
15 cm dishes were seeded with 4 million HCT116 cells and allowed to recover for 18 hr prior to transfection. Samples were then transfected for 24 hr with the GFP-tagged ER trafficked protein, cytosolic GFP, or empty vector. To harvest apoptotic and living cells for each sample, all media and washes were collected. Cells were scraped in 2 ml of cold PBS and combined with the media and washes. Samples were centrifuged to pellet cells, washed with 1 ml cold PBS, and flash frozen in liquid N2 prior to lysis.
The cell pellets were resuspended in 750 μl of 30 mM HEPES pH 7.2, 150 mM NaCl, 1% Triton X-100 with 1x Roche protease inhibitor cocktail (if used subsequently for caspase glo 8 assay) or with 5x Roche protease inhibitor cocktail (if used for immunoblotting). The cells were lysed by mechanical shearing through a 25G needle for 13–15 plunges followed by incubation on ice for 30 min. The lysate was centrifuged at 2000xg for 5 min to remove debris and then incubated with 30 μl of GFP-Trap magnetic agarose beads (Chromotek gtma-20) for 4 hr at 4°C. The beads were then washed with 750 μl of lysis buffer for 10 min at 4°C for three rounds.
For measuring caspase activity, a fifth of the beads was resuspended in 40 μl of 30 mM HEPES pH 7.2, 150 mM NaCl, 1% Triton X-100. 10 μl of the resuspended mixture was incubated with 10 ul of the caspase glo 8 luminogenic substrate (Promega #PRG8200) for 45 min at RT before measuring luminescence.

Experiment [2] deals with XBP1 mRNA in HCT116 cells. In words: RT-PCR for Xbp1 mRNA splicing. As to conditions: HCT116, 24 hr. Here is the method: Cells were grown in 6-well plates and harvested with 0.5 ml of TRIzol reagent (Life Technologies) per manufacturer's protocol to extract RNA. […] The reverse transcription product was diluted to 200 μl with 10 mM Tris-HCl pH 8.2 and used at 1:100 dilution for subsequent RT-PCR reactions. 2 μl of cDNA was added to 0.2 μM of forward and reverse primers ([…]; Hs_XBP1_Rev: [NT]), 0.2 mM of each dNTP, 0.5 units of Taq DNA polymerase (Thermo Scientific). The reaction was set at an annealing temperature of 60.5°C with an extension time of 30 s for 26 cycles.

Experiment [3] deals with DR5 / ERGIC53 / giantin in HCT116 cells. In words: Immunofluorescence co-localization (Pearson's correlation per cell). Here is the method: HCT116 were seeded at 25000 cells per well in an 8-well glass-bottom μSlide (Ibidi 80827) pre-coated with Collagen IV (Sigma-Aldrich C6745, 0.03 mg/ml in PBS incubated for 30 min at RT, and then rinsed off with PBS x 3) in growth media 18 hr prior to transfection (see above for protocol). 24 hr post-transfection, the cells were fixed using 4% paraformaldehyde (PFA, Electron Microscopy Sciences) or methanol, depending on the antibody combination used for immunostaining (see table below). Samples were protected from light after fixation to preserve GFP fluorescence.
For fixation with 4% PFA, 32% PFA was added directly to the well in growth media for a 1:8 dilution and incubated for 10–15 min at RT. Cells were then permeabilized with PHEM buffer (60 mM PIPES, 25 mM HEPES, 10 mM EGTA, 2 mM MgCl2-hexahydrate, pH 6.9) containing 0.1% Triton-X100 for 10 min at RT for three washes.
For fixation with methanol, media was removed and cells were washed with cold PBS. Then methanol (pre-cooled at −20°C) was added to the well and incubated at −20°C for 3–4 min. The methanol was promptly aspirated and replaced with PHEM buffer (without Triton X-100), followed by two more 10 min washes with PHEM at RT.
To block against non-specific antibody interactions, cells were rinsed in PHEM (without 0.1% Triton X-100) and then incubated with PHEM containing 2% normal goat serum (Jackson Immunoresearch Laboratories, 005-000-121) for 1 hr at RT. Primary antibodies were incubated in blocking solution overnight at 4°C at the dilution noted in the table above. Cells were then washed with PHEM buffer for 10 min at RT x three and incubated with secondary antibodies, anti-mouse-AlexaFluor546 (Invitrogen A11030) and anti-rabbit-AlexaFluor633 (Invitrogen A21071), diluted 1:1000 in PHEM with 2% normal goat serum. (Secondary antibody solutions were centrifuged at 15000xg for 20 mins at 4°C to remove aggregates prior to incubating with cell samples.) After a 1 hr incubation at RT, cells were washed with PHEM buffer once, then incubated with PHEM buffer containing nuclear stain (DAPI, Molecular Probes, Eugene, OR, D-1306, 5 μg/mL), and finally rinsed with PHEM buffer twice before imaging.
Samples were imaged on a spinning disk confocal with Yokogawa CSUX A1 scan head, Andor iXon EMCCD camera, and 40x Plan Apo air Objective NA 0.95 or 100x ApoTIRF objective NA 1.49 (Nikon).
From the 405 nm channel, cell nuclei were identified as primary objects using maximum correlation thresholding (MCT) and shape to distinguish clumped objects. Secondary objects were outlined using propagation from the nuclei (DAPI) after applying MCT from the 488 nm, 561 nm, and 633 nm channels. Tertiary objects for each cell was identified as the mask of each nucleus subtracted from the mask of its corresponding secondary object in each channel, yielding masks for intracellular GFP-tagged protein from the 488 nm channel, for intracellular DR5 from the 561 nm channel, and for the organelle marker in the 633 nm channel. For overlap between DR5 and MPZ/RHO-GFP, Pearson’s correlation coefficients were calculated within the MPZ/RHO mask for each cell to filter out untransfected cells. For overlap between DR5/MPZ and organelle markers, Pearson’s correlation coefficients were calculated within tertiary objects for the organelle marker in GFP+ cells. Statistical analyses for all data sets were performed using GraphPad Prism 6.0.

The mark [4] stands for this setting: HCT116, 24 hr post-transfection, Mean ± SEM.

For the substance “RHO-GFP: GFP-tagged rhodopsin expressed from plasmid”, the “caspase 8 activity of immunoprecipitates” value in experiment [1] (GFP pulldown) is “enriched for DR5 protein and caspase 8 activity more robustly than INS-GFP”. In addition, in experiment [1] (n=3), the “Mean ± SEM (IP)” value is 4.840 ± 0.2227, n=3. The results for the “fold change relative to GFP (GFPTrap beads)” value in experiment [1] (Rep 1), in experiment [1] (Rep 2) and in experiment [1] (Rep 3) were 4.68 fold change, 4.56 fold change and 5.28 fold change, respectively. For the same substance, in experiment [1] (average of replicates), the “average fold change relative to GFP (GFPTrap beads)” value is listed as 4.84 fold change. Also, the “GFPTrap beads RLUs” value in experiment [1] (replicate 1) turned out to be 329.286 RLUs; in experiment [1] (replicate 2), 320.842 RLUs; in experiment [1] (replicate 3), 371.502 RLUs. For the same substance, in experiment [1], the “95% confidence interval of difference (IP)” value is recorded as 3.209 to 4.472. The “Difference between means (IP)” value in experiment [1] is 3.840 ± 0.2275. Moreover, in experiment [2], the “XBP1 mRNA splicing” value is listed as “induced XBP1 mRNA splicing”. Further, the “overlap (mean Pearson's correlation) with DR5 signal” value in experiment [3] (versus 90° rotated images, 24 hr) is on record as “statistically significant overlap with DR5 signal”.
For “FTWRYQPEGGRDAISIFHYA [MPZ-ecto peptide-eGFP, expressed construct: MPZ ectodomain replaced by the MPZ-ecto peptide, GFP-tagged]”, in experiment [3] (setting [4]), the “Pearson's correlation per cell of GFP-tagged peptide with DR5” value is 0.23 ± 0.04 and the “Pearson's correlation per cell of GFP-tagged peptide with ERGIC” value is listed as 0.18 ± 0.04. The “Pearson's correlation per cell between DR5 and ERGIC” value in experiment [3] (HCT116 expressing GFP-tagged peptide, 24 hr, Mean ± SEM) worked out at 0.34 ± 0.03.
Turning to “INS-GFP: GFP-tagged proinsulin expressed from plasmid”, in experiment [1] (n=2), the “Mean ± SEM (IP)” value was 1.500 ± 0.1400, n=2. Moreover, the “fold change relative to GFP (GFPTrap beads)” value in experiment [1] (Rep 1) is on record as 1.64 fold change; in experiment [1] (Rep 2) it was 0.68 fold change; in experiment [1] (Rep 3), 1.36 fold change. Moreover, the “GFPTrap beads RLUs” value is recorded as 115.391 RLUs in experiment [1] (replicate 1), 47.845 RLUs in experiment [1] (replicate 2) and 95.69 RLUs in experiment [1] (replicate 3). Further, the “95% confidence interval of difference (IP)” value in experiment [1] is recorded as 0.1175 to 0.8825. Also, the “Difference between means (IP)” value in experiment [1] came out at 0.5000 ± 0.1202. For the same substance, the “XBP1 mRNA splicing” value in experiment [2] is “induced XBP1 mRNA splicing”.
